Counter-ions that a name gives are not always drawn.
What follows are compounds tested on Dissociated VM cells (assay: Neuroprotection Assay (NMDA-induced neuroexcitotoxic injury, high affinity 3H-dopamine uptake)). Conditions: embryonic day 15 rat ventral mesencephalic cultures, NMDA (100-400 µM) for 20 hours.
Type: cell-based, Sprague-Dawley rat
Source text: The neuroprotective activity of the compounds of this invention may be assayed using rat embryo ventral mesencephalic cells in culture which are subsequently exposed to the glutamate receptor agonist NMDA. This assay is described in detail in the example section.
The ventral mesencephalic region was dissected out of embryonic day 15 Sprague-Dawley rat embryos (Harlan), dissociated into single cell suspension by a combination of trypsinization and trituration (Costantini et al., Neurobiol Dis., pp. 97-106 (1998). Dissociated VM cells were plated into poly-L-ornithine-coated 96-well plates at a density of 85,000 cells/well in 100 uL of DMEM supplemented with 18% heat-inactivated horse serum, 0.24% glucose, 2 mM glutamine and 50 u/ml pernicillin/streptomycin and incubated in a 5% CO2 incubator. After one day in culture (DIV1), the medium was replaced with 100 µL of a defined medium (DMEM supplemented with 1x N2 cocktail (Gibco-BRL), 0.12% glucose, 2 mM glutamine, and 50 units/ml penicillin/streptomycin) containing DMSO or various concentrations of the compounds of this invention. On DIV5, neuroexcitotoxic injury was induced by the addition of various concentrations of the glutamate receptor agonist NMDA (100-400 µM). Cultures were incubated with the neurotoxin for 20 hours and the effects of neurophilin compounds were assessed using high affinity ^3H-dopamine uptake according to a procedure published by Park and Mytilineou [Brain Res., 599, pp. 83-97 (1992)].
With `CCN1CCCC[C@H]1C(=O)N1CCN(Cc2ccncc2)CC1` [Compound 37, ((2S)-1-Ethylpiperidin-2-yl)-(4-pyridin-4-ylmethylpiperazin-1-yl)-methanone trihydrochloride] the EC50 was greater than 500 nM.
With `O=C([C@@H]1CCCN1Cc1ccc(F)cc1)N1CCC(Cc2ccccc2)CC1` [Compound 58, (4-Benzylpiperidin-1-yl)-[(2S)-1-(4-fluorobenzyl)-Pyrrolidin-2-yl]-methanone hydrochloride] the EC50 was less than 100 nM.
`CN1CCC=C(C(=O)N2CCC(Cc3ccc(F)cc3)CC2)C1` [Compound 89, [4-(4-Fluorobenzyl)piperidin-1-yl]-(1-methyl-1,2,5,6-tetrahydropyridin-3-yl) methanone hydrochloride] showed an EC50 of 100 to 500 nM.
In the case of `C=CCN1CCC(C(=O)N2CCC(Cc3ccc(F)cc3)CC2)CC1` [Compound 274], the EC50 is reported as greater than 500 nM.
With `O=C(C1CCN(C/C=C/c2ccccc2)CC1)N1CCC(Cc2ccc(F)cc2)CC1` [Compound 255] the EC50 was less than 100 nM.
Work on `CN1CCCC(C(=O)N2CCC(Cc3ccccc3)CC2)C1` (centres unmarked) [Compound 204] yielded an EC50 of 100 to 500 nM.
Compound `CCN1CCCC[C@H]1C(=O)N1CCC(Cc2ccccc2)C1` (stereo partly drawn) [Compound 35, (3-Benzylpyrrolidin-1-yl)-((2S)-1-ethylpiperidin-2-yl)-methanone] has an EC50 of 100 to 500 nM.
In the case of `CCN1CCCC[C@H]1C(=O)N1CCN(C(c2ccccc2)c2ccc(Cl)cc2)CC1` (stereo partly drawn) [Compound 41, {4-[(4-Chlorophenyl)phenylmethyl]-piperazin-1-yl}-((2S)-1-ethylpiperidin-2-yl)-methanone dihydrochloride], the EC50 is reported as less than 100 nM.
With `CCN1CCCC[C@H]1C(=O)N1CCC(Cc2ccccc2)CC1` [Compound 26, 1-(4-Benzylpiperidin-1-yl)-1-((S)-1-ethylpiperidin-2-yl)methanone] the EC50 was less than 100 nM.
Compound `CC(C)=CCN1CCC(C(=O)N2CCC(Cc3ccc(F)cc3)CC2)CC1` [Compound 276] has an EC50 of less than 100 nM.
`COC(=O)CO[C@@H]1C[C@@H](C(=O)N2CCC(Cc3ccccc3)CC2)N(Cc2ccccc2)C1` [Compound 155, [(2S, 4R)-1-Benzyl-5-(4-benzylpiperidine-1-carbonyl)-pyrrolidin-3-yloxyl]-acetic acid methyl ester] was tested, and the EC50 was greater than 500 nM.
`O=C(C1CCN(Cc2ccc(F)cc2)CC1)N1CCC(Cc2ccc(F)cc2)CC1` [Compound 257] showed an EC50 of 100 to 500 nM.
`O=C([C@@H]1CCCCN1CC1CC1)N1CCN(C(c2ccc(F)cc2)c2ccc(F)cc2)CC1` [Compound 63, {4-[Bis-(4-fluorophenyl)methyl]-piperazin-1-yl}-((2S)-1-cyclopropylmethyl-piperidin-2-yl)-methanone] gave an EC50 greater than 500 nM.
`O=C([C@@H]1CCCCN1Cc1ccccc1)N1CCN(C(c2ccccc2)c2ccccc2)CC1` [Compound 20, 1-((S)-1-Benzyl-piperidin-2-yl)-1-[4-(1,1-diphenyl-methyl)-piperazin-1-yl]-methanone] was tested, and the EC50 was less than 100 nM.
`CCN1CCC(C(=O)N2CCN(c3ccc(F)cc3)CC2)CC1` [Compound 226] was tested, and the EC50 was 100 to 500 nM.
With `CCN1CCCC[C@H]1CN1CCC(Cc2ccccc2)CC1` [Compound 101, 4-Benzyl-1-((2S)-1-ethylpiperidin-2-ylmethyl)-piperidine] the EC50 was less than 100 nM.
With `O=C([C@@H]1CCCN1Cc1ccccc1)N1CCN(c2ccc(F)cc2)CC1` [Compound 86, ((2S)-1-Benzylpyrrolidin-2-yl)-[4-(4-fluorophenyl)piperazin-1-yl] methanone hydrochloride] the EC50 was less than 100 nM.
For `CCN1CCCC[C@H]1C(=O)N1CCN(C(c2ccccc2)c2ccccc2)CC1` [Compound 1, 1-[4-(1,1-Diphenylmethyl)piperazin-1-yl]-1-((S)-1-ethylpiperidin-2-yl)methanone], the EC50 was less than 100 nM.
In the case of `O=C([C@@H]1CCCN1Cc1ccccc1)N1CCC(Oc2ccc(F)cc2)CC1` [Compound 48, ((2S)-1-Benzylpyrrolidin-2-yl)-[4-(4-fluorophenoxy)-piperidin-1-yl] -methanone hydrochloride], the EC50 is reported as less than 100 nM.
Work on `CCN1CCCC[C@H]1C(=O)N1CCN(Cc2ccc3c(c2)OCO3)CC1` [Compound 71, (4-Benzo[1,3]dioxol-5-ylmethylpiperazin-1-yl)-((2S)-1-ethylpiperidin-2-yl)-methanone dihydrochloride] yielded an EC50 greater than 500 nM.
In the case of `CCN1CCCC[C@H]1C(=O)N1CCN(Cc2ccc(F)c(F)c2)CC1` [Compound 77, [4-(3,4-Difluorobenzyl)-piperazin-1-yl]-((2S) -1-ethylpiperidin-2-yl)-methanone], the EC50 is reported as 100 to 500 nM.
Work on `CCN1CCCC[C@H]1C(=O)N1CCN(Cc2ccccc2)CC1` [Compound 16, 1-(4-Benzylpiperazin-1-yl)-1-((S)-1-ethylpiperidin-2-yl)methanone] yielded an EC50 of 100 to 500 nM.
For `CCN1CCCC[C@H]1C(=O)N1CCC(C(=O)c2ccc(F)cc2)CC1` [Compound 45, ((2S)-1-Ethylpiperidin-2-yl)-[4-(4-fluorobenzoyl)-piperidin-1-yl]-methanone], the EC50 was 100 to 500 nM.
For `C=CCN1CCC(C(=O)N2CCN(c3ccc(F)cc3)CC2)CC1` [Compound 258], the EC50 was 100 to 500 nM.
`O=C([C@@H]1C[C@@H](O)CN1Cc1ccccc1)N1CCC(Cc2ccccc2)CC1` [Compound 30, ((2S,4R) -1-Benzyl-4-hydroxypyrrolidin-2-yl)-(4-benzylpiperidin-1-yl)-methanone] showed an EC50 of less than 100 nM.
Work on `Fc1ccc(CC2CCN(C[C@@H]3CCCN3Cc3ccccc3)CC2)cc1` [Compound 103, 1-((2S)-1-Benzylpyrrolidin-2-ylmethyl)-4-(4-fluorobenzyl)piperidine dihydrochloride] yielded an EC50 of less than 100 nM.
With `CCN1CCC[C@H]1C(=O)N1CCN(C(c2ccc(F)cc2)c2ccc(F)cc2)CC1` [Compound 50, 4-[Bis-(4-fluorophenyl)methyl]piperazin-1-yl}-((2S)-1-ethylpyrrolidin-2-yl)-methanone dihydrochloride] the EC50 was 100 to 500 nM.
For `CN1CCCC(C(=O)N2CCN(C(c3ccc(F)cc3)c3ccc(F)cc3)CC2)C1` (centres unmarked) [Compound 220], the EC50 was greater than 500 nM.
Compound `CCN1CCCC[C@H]1C(=O)N1CCC(Cc2ccc(F)cc2)CC1` [Compound 47, ((2S)-1-Ethylpiperidin-2-yl)-[4-(4-fluorobenzyl)-piperidin-1-yl]-methanone hydrochloride] has an EC50 of less than 100 nM.
`CCN1CCCC[C@H]1C(=O)N1CCN(C(c2ccc(F)cc2)c2ccc(F)cc2)CC1` [Compound 25, 1-{4-[1,1-Bis-(4-fluorophenyl)methyl]-piperazin-1-yl}-1-((S)-1-ethylpiperidin-2-yl)methanone] gave an EC50 of 100 to 500 nM.
For `CCN1CCCC[C@H]1C(=O)N1CCC(C(c2ccccc2)c2ccccc2)CC1` [Compound 44, (4-Benzhydrylpiperidin-1-yl)-((2S)-1-ethylpiperidin-2-yl)-methanone hydrochloride], the EC50 was less than 100 nM.
In the case of `CCN1CCCC[C@H]1C(=O)N1CCN(C(c2ccccc2)c2nc(OC)cc(OC)n2)CC1` (some centres unmarked) [Compound 43], the EC50 is reported as 100 to 500 nM.
For `O=C(C1CCN(CC2CC2)CC1)N1CCN(c2ccc(F)cc2)CC1` [Compound 262], the EC50 was less than 100 nM.
`O=C([C@@H]1CCCCN1Cc1ccccc1)N1CCN(C(c2ccc(F)cc2)c2ccc(F)cc2)CC1` [Compound 61, ((2S)-1-Benzylpiperidin-2-yl)-{4-[bis-(4-fluorophenyl)methyl]-piperazin-1-yl}-methanone] showed an EC50 of 100 to 500 nM.
With `CCN1CCCC[C@H]1C(=O)N1CCN(Cc2ccccn2)CC1` [Compound 38, ((2S)-1-Ethylpiperidin-2-yl)-(4-pyridin-2-ylmethylpiperazin-1-yl)-methanone trihydrochloride] the EC50 was greater than 500 nM.
`CN1CCC(C(=O)N2CCN(C(c3ccc(F)cc3)c3ccc(F)cc3)CC2)CC1` [Compound 218] showed an EC50 of 100 to 500 nM.
`CCN1CCCC[C@H]1CN1CCN(C(c2ccccc2)c2ccccc2)CC1` [Compound 100, 1-Benzhydryl-4-((2S)-1-ethylpiperidin-2-ylmethyl)-piperazine] showed an EC50 of less than 100 nM.
For `O=C(C1CCN(Cc2ccccc2)CC1)N1CCN(c2ccc(F)cc2)CC1` [Compound 256], the EC50 was 100 to 500 nM.
Work on `O=C([C@H]1CCCN1Cc1ccccc1)N1CCC(Cc2ccccc2)CC1` [Compound 55, (4-Benzylpiperidin-1-yl)-((2R)-1-benzylpyrrolidin-2-yl)methanone hydrochloride] yielded an EC50 of 100 to 500 nM.
With `CCN1CCCC[C@H]1C(=O)N1CCN(Cc2ccc(OC)cc2)CC1` [Compound 75, ((2S)-1-Ethylpiperidin-2-yl)-[4-(4-methoxybenzyl)-piperazin-1-yl]-methanone] the EC50 was greater than 500 nM.
In the case of `CC(C)=CCN1CCCC[C@H]1C(=O)N1CCN(C(c2ccc(F)cc2)c2ccc(F)cc2)CC1` [Compound 65, {4-[Bis-(4-fluorophenyl)methyl]-piperazin-1-yl}-[(2S)-1-(3-methyl-but-2-enyl)-piperidin-2-yl]-methanone], the EC50 is reported as less than 100 nM.
`CCN1CCCC[C@H]1C(=O)N1CCN(C(=O)c2ccccc2)CC1` [Compound 78, [4-((2S)-1-Ethylpiperidine-2-carbonyl)-piperazin-1-yl]-phenyl methanone] was tested, and the EC50 was greater than 500 nM.
`CCN1CCCC[C@H]1C(=O)N1CCN(C(=O)c2ccc(F)cc2)CC1` [Compound 79, ((2S)-1-Ethylpiperidin-2-yl)-[4-(4-fluorobenzoyl)-piperazin-1-yl] methanone hydrochloride] showed an EC50 of 100 to 500 nM.
`CC(C)CN1CCC(C(=O)N2CCN(c3ccc(F)cc3)CC2)CC1` [Compound 264] was tested, and the EC50 was 100 to 500 nM.

Source: EP1257544B1, “PIPERAZINE AND PIPERIDINE DERIVATIVES FOR TREATMENT OR PREVENTION OF NEURONAL DAMAGE” (VERTEX PHARMACEUTICALS INCORPORATED, priority 2000, dated 2001)
